Test results published in patent EP2578599A1 (LanthioPep B.V., priority 2011, dated 2013).

Assays:
trypsin = assay: Proteolytic resistance: incubation of peptide conformations with trypsin; format: in vitro ADME
Description: Production of peptide in Lactococcus lactis and characterization of the peptide were performed as described in Plat et al. (Polymers 2011, 3, 1282-1296). […] After inducing dehydration the peptide was harvested from the medium and characterized. After overnight incubation of the purified peptide containing a lysinoalanine at RT in 0.25 % ammonia (w/v) the sample was applied on a C18 column ([…] analytical C18 column 5 μm). Peaks were collected and analyzed by mass spectrometry. Different conformations of the peptide were incubated with trypsin and cpY (Figure 2).

carboxypeptidase Y (cpY) = carboxypeptidase Y (cpY) (Saccharomyces cerevisiae, UniProt P00729); assay: Proteolytic resistance: incubation of peptide conformations with carboxypeptidase Y; format: in vitro ADME; details: HPLC peaks of nisin leader - GLP-1 fragment (29-36) peptide treated with cpY
Description: Production of peptide in Lactococcus lactis and characterization of the peptide were performed as described in Plat et al. (Polymers 2011, 3, 1282-1296).
After overnight incubation of the purified peptide containing a lysinoalanine at RT in 0.25 % ammonia (w/v) the sample was applied on a C18 column (Alltech, alltima analytical C18 column 5 µm). Peaks were collected and analyzed by mass spectrometry. Different conformations of the peptide were incubated with trypsin and cpY (Figure 2).

Sequence of carboxypeptidase Y (cpY) (P00729 112-532): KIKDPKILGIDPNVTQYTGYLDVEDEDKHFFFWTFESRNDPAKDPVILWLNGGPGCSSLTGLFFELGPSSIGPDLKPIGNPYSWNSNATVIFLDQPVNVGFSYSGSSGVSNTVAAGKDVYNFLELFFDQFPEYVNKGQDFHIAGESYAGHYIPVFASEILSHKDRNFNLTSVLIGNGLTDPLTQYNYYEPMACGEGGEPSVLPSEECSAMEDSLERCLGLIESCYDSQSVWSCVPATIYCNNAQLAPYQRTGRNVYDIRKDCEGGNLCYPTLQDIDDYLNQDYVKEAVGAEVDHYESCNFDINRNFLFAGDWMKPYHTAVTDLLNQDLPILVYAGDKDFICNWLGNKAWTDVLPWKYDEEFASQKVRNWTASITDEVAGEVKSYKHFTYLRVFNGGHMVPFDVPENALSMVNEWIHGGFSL

nisin leader - I Dha W L V K G R [lysinoalanine-bridged GLP-1 peptide]
protection against trypsin (trypsin): resistant | protection against carboxypeptidase Y (cpY) (carboxypeptidase Y (cpY)): resistant
